According to ChEMBL document CHEMBL1201862, “PubChem BioAssay data set” (2004):
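Five concentrations, 48 hours, 96-well plates. Abbreviation: GI50, concentration required for 50% inhibition of growth.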 Activity calls are given as the source filed them. Cut-off read from the data, not from the text of the source: active = GI50 up to about 1.1 µM and inactive = higher.

Key:
Experiment in all cases: growth of human tumour cells (NCI), 48 h
786-0 = system: 786-0
A498 = system: A498
A549 = system: A549
ACHN = system: ACHN
BT-549 = system: BT-549
CAKI-1 = system: CAKI-1
CCRF-CEM = system: CCRF-CEM
COLO 205 = system: COLO 205
DU-145 = system: DU-145
EKVX = system: EKVX
HCC 2998 = system: HCC 2998
HCT-116 = system: HCT-116
HCT-15 = system: HCT-15
HL-60 = system: HL-60
HOP-62 = system: HOP-62
HOP-92 = system: HOP-92
HT-29 = system: HT-29
Hs-578T = system: Hs-578T
IGROV-1 = system: IGROV-1
K562 = system: K562
KM12 = system: KM12
LOX IMVI = system: LOX IMVI
M14 = system: M14
MCF7 = system: MCF7
MDA-MB-231 = system: MDA-MB-231
MDA-MB-435 = system: MDA-MB-435
MDA-N = system: MDA-N
MOLT-4 = system: MOLT-4
NCI-H226 = system: NCI-H226
NCI-H23 = system: NCI-H23
NCI-H460 = system: NCI-H460
NCI-H522 = system: NCI-H522
NCI/ADR-RES = system: NCI/ADR-RES
OVCAR-3 = system: OVCAR-3
OVCAR-4 = system: OVCAR-4
OVCAR-5 = system: OVCAR-5
OVCAR-8 = system: OVCAR-8
PC-3 = system: PC-3
RPMI-8226 = system: RPMI-8226
RXF 393 = system: RXF 393
SF-268 = system: SF-268
SF-295 = system: SF-295
SF-539 = system: SF-539
SK-MEL-28 = system: SK-MEL-28
SK-MEL-2 = system: SK-MEL-2
SK-MEL-5 = system: SK-MEL-5
SK-OV-3 = system: SK-OV-3
SN12C = system: SN12C
SNB-19 = system: SNB-19
SNB-75 = system: SNB-75
SW-620 = system: SW-620
T47D = system: T47D
TK-10 = system: TK-10
U-251 = system: U-251
UACC-257 = system: UACC-257
UACC-62 = system: UACC-62
UO-31 = system: UO-31
Malme-3M = system: Malme-3M

C/C=C/C=C\C1OC(O)([C@H](CC)C(=O)NC/C=C/C=C(\C)[C@H](OC)C(C)C2OC(\C=C/C=C/C=C(\C)C(=O)c3c(O)ccn(C)c3=O)[C@H](O)[C@@H]2O)C(O)C(O)C1(C)C (some centres undefined)
GI50 (786-0): 71 µM (inactive) | GI50 (A498): > 100 µM (inactive) | GI50 (A549): > 100 µM (inactive) | GI50 (ACHN): > 100 µM (inactive) | GI50 (BT-549): > 100 µM (inactive) | GI50 (CAKI-1): > 100 µM (inactive) | GI50 (CCRF-CEM): 38.4 µM (inactive) | GI50 (COLO 205): > 100 µM (inactive) | GI50 (DU-145): > 100 µM (inactive) | GI50 (EKVX): > 100 µM (inactive) | GI50 (HCC 2998): > 100 µM (inactive) | GI50 (HCT-116): > 100 µM (inactive) | GI50 (HCT-15): > 100 µM | GI50 (HL-60): 54.3 µM (inactive) | GI50 (HOP-62): > 100 µM (inactive) | GI50 (HOP-92): > 100 µM (inactive) | GI50 (HT-29): 55 µM (inactive) | GI50 (Hs-578T): > 100 µM (inactive) | GI50 (IGROV-1): 82 µM (inactive) | GI50 (K562): 73.5 µM (inactive) | GI50 (KM12): > 100 µM (inactive) | GI50 (LOX IMVI): 69.5 µM (inactive) | GI50 (M14): > 100 µM (inactive) | GI50 (MCF7): > 100 µM (inactive) | GI50 (MDA-MB-231): > 100 µM (inactive) | GI50 (MDA-MB-435): > 100 µM (inactive) | GI50 (MDA-N): > 100 µM (inactive) | GI50 (MOLT-4): 41.9 µM (inactive) | GI50 (NCI-H226): > 100 µM (inactive) | GI50 (NCI-H23): > 100 µM (inactive) | GI50 (NCI-H460): > 100 µM (inactive) | GI50 (NCI-H522): > 100 µM (inactive) | GI50 (NCI/ADR-RES): > 100 µM (inactive) | GI50 (OVCAR-3): > 100 µM (inactive) | GI50 (OVCAR-4): > 100 µM (inactive) | GI50 (OVCAR-5): > 100 µM (inactive) | GI50 (OVCAR-8): 82.8 µM (inactive) | GI50 (PC-3): 64.3 µM (inactive) | GI50 (RPMI-8226): 20.3 µM (inactive) | GI50 (RXF 393): > 100 µM (inactive) | GI50 (SF-268): > 100 µM (inactive) | GI50 (SF-295): > 100 µM (inactive) | GI50 (SF-539): > 100 µM (inactive) | GI50 (SK-MEL-28): > 100 µM (inactive) | GI50 (SK-MEL-2): > 100 µM (inactive) | GI50 (SK-MEL-5): 88.1 µM (inactive) | GI50 (SK-OV-3): > 100 µM (inactive) | GI50 (SN12C): 75.3 µM (inactive) | GI50 (SNB-19): > 100 µM (inactive) | GI50 (SNB-75): > 100 µM (inactive) | GI50 (SW-620): > 100 µM (inactive) | GI50 (T47D): 40.2 µM (inactive) | GI50 (TK-10): > 100 µM (inactive) | GI50 (U-251): > 100 µM (inactive) | GI50 (UACC-257): > 100 µM (inactive) | GI50 (UACC-62): 96.2 µM (inactive) | GI50 (UO-31): > 100 µM (inactive)

CCC(C)(C)c1ccc(Oc2cccc(C(=O)O)c2)cc1
GI50 (786-0): 89.3 µM (inactive) | GI50 (A498): 53.8 µM (inactive) | GI50 (A549): 38.2 µM (inactive) | GI50 (ACHN): 58.9 µM (inactive) | GI50 (BT-549): 66.7 µM (inactive) | GI50 (CAKI-1): 65.6 µM (inactive) | GI50 (CCRF-CEM): 28.9 µM (inactive) | GI50 (COLO 205): 38.8 µM (inactive) | GI50 (DU-145): 97.1 µM (inactive) | GI50 (EKVX): 40.4 µM (inactive) | GI50 (HCC 2998): 93.3 µM (inactive) | GI50 (HCT-116): 41.5 µM (inactive) | GI50 (HCT-15): 39.5 µM | GI50 (HL-60): 40.1 µM (inactive) | GI50 (HOP-62): 64.7 µM (inactive) | GI50 (HT-29): 44.4 µM (inactive) | GI50 (Hs-578T): 44 µM (inactive) | GI50 (IGROV-1): > 100 µM (inactive) | GI50 (K562): 32.6 µM (inactive) | GI50 (KM12): 47.1 µM (inactive) | GI50 (LOX IMVI): 50.4 µM (inactive) | GI50 (M14): 52.8 µM (inactive) | GI50 (MCF7): 36.8 µM (inactive) | GI50 (MDA-MB-231): > 100 µM (inactive) | GI50 (MDA-MB-435): 45 µM (inactive) | GI50 (MDA-N): 47.6 µM (inactive) | GI50 (MOLT-4): 29.9 µM (inactive) | GI50 (Malme-3M): 44.6 µM (inactive) | GI50 (NCI-H226): 39.9 µM (inactive) | GI50 (NCI-H23): 52.2 µM (inactive) | GI50 (NCI-H460): 44.4 µM (inactive) | GI50 (NCI-H522): 28.2 µM (inactive) | GI50 (NCI/ADR-RES): 50.1 µM (inactive) | GI50 (OVCAR-3): 26.7 µM (inactive) | GI50 (OVCAR-4): 44.3 µM (inactive) | GI50 (OVCAR-5): > 100 µM (inactive) | GI50 (OVCAR-8): 69.7 µM (inactive) | GI50 (PC-3): 55 µM (inactive) | GI50 (RPMI-8226): 28.8 µM (inactive) | GI50 (RXF 393): 98.6 µM (inactive) | GI50 (SF-268): 46.8 µM (inactive) | GI50 (SF-295): 38.3 µM (inactive) | GI50 (SF-539): 33.5 µM (inactive) | GI50 (SK-MEL-28): 81.8 µM (inactive) | GI50 (SK-MEL-2): 45.2 µM (inactive) | GI50 (SK-MEL-5): 43.1 µM (inactive) | GI50 (SK-OV-3): 72.1 µM (inactive) | GI50 (SN12C): 56.4 µM (inactive) | GI50 (SNB-19): 85.5 µM (inactive) | GI50 (SNB-75): 37.9 µM (inactive) | GI50 (SW-620): 53 µM (inactive) | GI50 (T47D): 33.7 µM (inactive) | GI50 (TK-10): > 100 µM (inactive) | GI50 (U-251): 41.8 µM (inactive) | GI50 (UACC-257): > 100 µM (inactive) | GI50 (UACC-62): 34.6 µM (inactive) | GI50 (UO-31): 48.1 µM (inactive)
